# Data from US20080260716A1, “Method and Composition for High Level Disinfection Employing Quaternary Ammonium Compounds” (priority 2004, published 2008).
# Read-outs that look alike come from different tables or passages of the source.
# Experiments:
# B. subtilis spores = test: AOAC sporicidal test, kill time; format: cell-based; conditions: for B. subtilis (no kill): 48 hrs
# [1] = tested on: Mycobacterium terrae, B. subtilis, C. sporogens; parameters: key: satisfies the FDA requirement for high level disinfection (“HLD”); fails to do so (“F”)
# [2] = Table 3 Prior art, 0.25% QUAT, 25° C.
# [3] = Table 6 unnumbered test, 2% QUAT + 0.2% Protease (Savinase 16 L), 25° C. + 1% borax
# [4] = test 3.4, 0.25% QUAT, 62° C. + ultrasound
# [5] = test 4.1, 2% QUAT, 25° C. + 1% borax
# [6] = test 4.2, 5% QUAT, 25° C. + 1% borax
# [7] = test 4.3, 1% QUAT, 40° C. + 1% borax
# [8] = test 4.4, 2% QUAT, 40° C. + 1% borax
# [9] = test 4.5, 5% QUAT, 40° C. + 1% borax
# [10] = test 4.6, 2% QUAT, 50° C. + 1% borax
# [11] = test 4.7, 5% QUAT, 50° C. + 1% borax
# [12] = test 5.2, 2% QUAT, 40° C. + ultrasound 10 min each hour
# [13] = test 5.3, 5% QUAT, 40° C. + ultrasound 10 min each hour
# [14] = test 5.4, 1% QUAT, 40° C. + ultrasound 10 min each hour
# [15] = test 5.5, 2% QUAT + 1% borax, 40° C. + ultrasound 10 min each hour
# [16] = test 5.6, 5% QUAT + 1% borax, 40° C. + ultrasound 10 min each hour
# [17] = test 5.7, 2% QUAT + 1% borax + Protease, 40° C. + ultrasound 10 min each hour
# [18] = test 6.1, 2% QUAT + 0.2% Protease (Savinase 16 L), 25° C.
# [19] = test 6.2, 2% QUAT + 0.2% Protease (Savinase 16 L), 40° C.
# [20] = test 6.3, 2% QUAT + 0.2% Protease (Savinase 16 L), 40° C. + 1% borax
# [21] = test 6.4, 2% QUAT + 0.2% Protease (Savinase 16 L), 50° C.
# [22] = test 6.5, 2% QUAT + 0.2% Protease (Savinase 16 L), 50° C. + 1% borax
# [23] = test 6.6, 2% QUAT + 0.2% Protease (Savinase 16 L), 40° C. + ultrasound 10 min each hour + 1% borax
# [24] = test 6.7, 2% QUAT + 1% borax + Protease, 40° C. + ultrasound 10 min each hour
substance,measurement,setting,value
benzalkonium chloride [QUAT],Kill Time B. subtilis,B. subtilis spores; [2],>24 h
same,Kill Time B. subtilis,B. subtilis spores; [3],>48 h
same,B. subtilis (no kill),B. subtilis spores; [3],(no kill) (“No kill” means less than 2 log reduction from the initial population)
same,kill time of B. subtilis,"B. subtilis spores; above 1% w/w of quat, 40° C.",less than 2 hours
same,Kill Time B. subtilis,"B. subtilis spores; test 1.1, 0.025% QUAT, 25° C.",>24 h
same,Kill Time B. subtilis,"B. subtilis spores; test 1.2, 0.25% QUAT, 25° C.",>24 h
same,Kill Time B. subtilis,"B. subtilis spores; test 2.1, 5% QUAT, 30° C.",<2 h
same,Kill Time B. subtilis,"B. subtilis spores; test 2.2, 1.0% QUAT, 40° C.",<2 h
same,Kill Time B. subtilis,"B. subtilis spores; test 2.3, 2.0% QUAT, 40° C.",<2 h
same,Kill Time B. subtilis,"B. subtilis spores; test 2.4, 5.0% QUAT, 40° C.",<1 h
same,Kill Time B. subtilis,"B. subtilis spores; test 2.5, 1.0% QUAT, 50° C.",<1 h
same,Kill Time B. subtilis,"B. subtilis spores; test 2.6, 2.0% QUAT, 50° C.",<1 h
same,Kill Time B. subtilis,"B. subtilis spores; test 2.7, 5.0% QUAT, 50° C.",<1 h
same,Kill Time B. subtilis,"B. subtilis spores; test 2.7, 5.0% QUAT, 50° C., listed as quat",less than one hour
same,Kill Time B. subtilis,"B. subtilis spores; test 2.8, 1.0% QUAT, 80° C.",<1 h
same,Kill Time B. subtilis,"B. subtilis spores; test 2.8, 1.0% QUAT, 80° C., listed as quat",less than one hour
same,Kill Time B. subtilis,"B. subtilis spores; test 3.1, 0.25% QUAT, 40° C.",>24 h
same,Kill Time B. subtilis,"B. subtilis spores; test 3.2, 0.25% QUAT, 50° C.",>24 h
same,Kill Time B. subtilis,"B. subtilis spores; test 3.3, 0.25% QUAT, 60° C.",>24 h
same,Kill Time B. subtilis,B. subtilis spores; [4],>24 h
same,Kill Time B. subtilis,"B. subtilis spores; test 3.5, 1.0% QUAT, 25° C.",>48 h
same,B. subtilis (no kill),"B. subtilis spores; test 3.5, 1.0% QUAT, 25° C.",(no kill) (“No kill” means less than 2 log reduction from the initial population)
same,Kill Time B. subtilis,"B. subtilis spores; test 3.6, 2.0% QUAT, 25° C.",>48 h
same,B. subtilis (no kill),"B. subtilis spores; test 3.6, 2.0% QUAT, 25° C.",(no kill) (“No kill” means less than 2 log reduction from the initial population)
same,Kill Time B. subtilis,"B. subtilis spores; test 3.7, 5.0% QUAT, 25° C.",>48 h
same,B. subtilis (no kill),"B. subtilis spores; test 3.7, 5.0% QUAT, 25° C.",(no kill) (“No kill” means less than 2 log reduction from the initial population)
same,Kill Time B. subtilis,"B. subtilis spores; test 3.8, 0.6%, 40° C.",>24 h
same,Kill Time B. subtilis,"B. subtilis spores; test 3.9, 0.6% QUAT, 50° C.",<16 h
same,Kill Time B. subtilis,B. subtilis spores; [5],>48 h
same,B. subtilis (no kill),B. subtilis spores; [5],(no kill) (“No kill” means less than 2 log reduction from the initial population)
same,Kill Time B. subtilis,B. subtilis spores; [6],>48 h
same,B. subtilis (no kill),B. subtilis spores; [6],(no kill) (“No kill” means less than 2 log reduction from the initial population)
same,Kill Time B. subtilis,B. subtilis spores; [7],<1 h
same,Kill Time B. subtilis,B. subtilis spores; [8],<1 h
same,Kill Time B. subtilis,B. subtilis spores; [9],<1 h
same,Kill Time B. subtilis,B. subtilis spores; [10],<1 h
same,Kill Time B. subtilis,B. subtilis spores; [11],<1 h
same,Kill Time B. subtilis,"B. subtilis spores; test 5.1, 1% QUAT, 40° C. + ultrasound 10 min each hour",<2 h
same,Kill Time B. subtilis,B. subtilis spores; [12],<1 h
same,Kill Time B. subtilis,B. subtilis spores; [13],<1 h
same,Kill Time B. subtilis,B. subtilis spores; [14],<1 h
same,Kill Time B. subtilis,B. subtilis spores; [15],<1 h
same,Kill Time B. subtilis,B. subtilis spores; [16],<1 h
same,Kill Time B. subtilis,B. subtilis spores; [17],<1 h
same,Kill Time B. subtilis,B. subtilis spores; [18],>48 h
same,B. subtilis (no kill),B. subtilis spores; [18],(no kill) (“No kill” means less than 2 log reduction from the initial population)
same,Kill Time B. subtilis,B. subtilis spores; [19],<2 h
same,Kill Time B. subtilis,B. subtilis spores; [20],<1 h
same,Kill Time B. subtilis,B. subtilis spores; [21],<1 h
same,Kill Time B. subtilis,B. subtilis spores; [22],<1 h
same,Kill Time B. subtilis,B. subtilis spores; [23],<1 h
same,Kill Time B. subtilis,B. subtilis spores; [24],<1 h
same,HLD Or F,[1]; [2],F
same,HLD Or F,[1]; [3],F
same,HLD or F,"[1]; test 1.1, 0.025% QUAT, 25° C.",F
same,HLD or F,"[1]; test 1.2, 0.25% QUAT, 25° C.",F
same,HLD or F,"[1]; test 2.1, 5% QUAT, 30° C.",HLD
same,HLD or F,"[1]; test 2.2, 1.0% QUAT, 40° C.",HLD
same,HLD or F,"[1]; test 2.3, 2.0% QUAT, 40° C.",HLD
same,HLD or F,"[1]; test 2.4, 5.0% QUAT, 40° C.",HLD
same,HLD or F,"[1]; test 2.5, 1.0% QUAT, 50° C.",HLD
same,HLD or F,"[1]; test 2.6, 2.0% QUAT, 50° C.",HLD
same,HLD or F,"[1]; test 2.7, 5.0% QUAT, 50° C.",HLD
same,HLD or F,"[1]; test 2.8, 1.0% QUAT, 80° C.",HLD
same,HLD Or F,"[1]; test 3.1, 0.25% QUAT, 40° C.",F
same,HLD Or F,"[1]; test 3.2, 0.25% QUAT, 50° C.",F
same,HLD Or F,"[1]; test 3.3, 0.25% QUAT, 60° C.",F
same,HLD Or F,[1]; [4],F
same,HLD Or F,"[1]; test 3.5, 1.0% QUAT, 25° C.",F
same,HLD Or F,"[1]; test 3.6, 2.0% QUAT, 25° C.",F
same,HLD Or F,"[1]; test 3.7, 5.0% QUAT, 25° C.",F
same,HLD Or F,"[1]; test 3.8, 0.6%, 40° C.",F
same,HLD Or F,"[1]; test 3.9, 0.6% QUAT, 50° C.",F
same,HLD or F,[1]; [5],F
same,HLD or F,[1]; [6],F
same,HLD or F,[1]; [7],HLD
same,HLD or F,[1]; [8],HLD
same,HLD or F,[1]; [9],HLD
same,HLD or F,[1]; [10],HLD
same,HLD or F,[1]; [11],HLD
same,HLD Or F,[1]; [12],HLD
same,HLD Or F,[1]; [13],HLD
same,HLD Or F,[1]; [14],HLD
same,HLD Or F,[1]; [15],HLD
same,HLD Or F,[1]; [16],HLD
same,HLD Or F,[1]; [17],HLD
same,HLD Or F,[1]; [18],F
same,HLD Or F,[1]; [19],HLD
same,HLD Or F,[1]; [20],HLD
same,HLD Or F,[1]; [21],HLD
same,HLD Or F,[1]; [22],HLD
same,HLD Or F,[1]; [23],HLD
same,HLD Or F,[1]; [24],HLD
